Results taken from patent US11760764B2, “Methods and compositions for targeting PD-L1” (Aligos Therapeutics, Inc., priority 2020, dated 2023).
Like-named read-outs stand apart in the source and are kept apart here.

Assays:
[1] = molecular target: PD-1/PD-L1 interaction (PDL1-6×His protein, PD1-Fc-Avi-Biotin protein) (Homo sapiens, UniProt Q9NZQ7); assay: PDL1/PD1 Binding Assay; conditions: 0.3 nM PDL1, 2.5 nM PD1
Description: Compounds to be tested were serially diluted in DMSO, and further diluted in assay buffer (25 mM Hepes pH 7.4, 150 mM NaCl, 0.005% Tween 20, BSA 0.01%). Diluted compounds were added to the wells with final concentration of DMSO at 1%. PDL1-6×His protein was added to the wells, mixed well with compound. The plates were incubated for 30 min at room temperature. PD1-Fc-Avi-Biotin protein was added to the wells. […] After a binding time of 30 min at room temperature, Anti-6×His Acceptor beads (final concentration 20 ug/ml) were added to the wells, and the incubation continued for 1 h. Streptavidin Donor beads (final concentration 20 ug/mL) were added at reduced light. The plates were sealed with foil and incubated in the dark for additional 1 h or overnight before reading on an Envision reader. The IC50s were determined by fitting the curves using a four-parameter equation in Graphpad Prism 8.

[2] = molecular target: T1, PD-1/PD-L1 interaction (Jurkat cells overexpressing PD-1 co-cultured with PD-L1 expressing CHO cells) (Homo sapiens, UniProt Q9NZQ7); assay: PD-1/PD-L1 NFAT Reporter Assay; type: cell-based; conditions: Table C-1; Jurkat/CHO co-culture, 6 hrs at 37° C., luciferase activity
T1 construct: expressed in transfected cells; Jurkat cells (PD-1 and NF-AT luciferase construct)
Description: Blocking the PD-1/PD-L1 interaction will release the inhibitory signal and results in TCR signaling and NFAT-mediated luciferase activity.
CHO cells expressing surface-bound anti-CD3 antibodies and PD-L1 were first seeded overnight and treated with the compounds. Jurkat cells overexpressing PD-1 and a luciferase construct under NF-AT promoter were then immediately seeded on the monolayer of CHO cells. The co-culture was then incubated for 6 hrs at 37° C. Luciferase activity was assessed by adding the ONE-Glo reagent and measuring luminescence with a plate reader. EC50s values were determined from the fit of the dose-response curves

[3] = Table C-1, read-out: Biological Data Biochem PD-1/PD-L1
[4] = Table C, read-out: PD-1/PD-L1 PPI IC50

T1 sequence (Q9NZQ7 19-290): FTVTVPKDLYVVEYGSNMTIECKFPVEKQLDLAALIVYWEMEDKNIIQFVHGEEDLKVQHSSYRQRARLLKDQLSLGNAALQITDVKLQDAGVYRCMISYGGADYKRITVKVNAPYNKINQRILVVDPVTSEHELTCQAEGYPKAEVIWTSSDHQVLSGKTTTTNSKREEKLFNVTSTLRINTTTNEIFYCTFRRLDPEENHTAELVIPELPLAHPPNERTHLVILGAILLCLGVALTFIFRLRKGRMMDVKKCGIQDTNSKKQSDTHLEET
PD-1/PD-L1 interaction (PDL1-6×His protein, PD1-Fc-Avi-Biotin protein), sequence (Q9NZQ7 19-238 limits assumed): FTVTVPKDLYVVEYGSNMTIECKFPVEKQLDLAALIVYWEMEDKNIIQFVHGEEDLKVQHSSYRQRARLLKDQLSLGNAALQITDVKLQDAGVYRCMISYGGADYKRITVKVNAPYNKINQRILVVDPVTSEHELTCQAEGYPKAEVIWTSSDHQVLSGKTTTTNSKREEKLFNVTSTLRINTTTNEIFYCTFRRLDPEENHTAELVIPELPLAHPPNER

IC50 [1, 3]	IC50 [1, 4]	EC50 [2]	PD-1/PD-L1 NFAT Reporter Assay [2]	Compound
≤ 10 nM	≤ 10 nM	≤ 10 nM	–	COc1nc(-c2cccc(-c3cccc(-c4cc5c(c(OC)n4)[C@H](N4CC6(CN(C(C)=O)C6)C4)CC5)c3Cl)c2F)cc2c1[C@H](N1CC3(CN(C(C)=O)C3)C1)CC2 (single isomer, unassigned) [Compound L-11]
≤ 10 nM	–	100 to 1000 nM	–	CCOC(=O)C1CN([C@H]2CCc3cc(-c4cccc(-c5cccc(-c6cc7c(c(OC)c6)[C@@H](N6CC(C(=O)OCC)C6)CC7)c5Cl)c4Cl)cc(OC)c32)C1 (single isomer, unassigned) [Compound L-4]
≤ 10 nM	–	100 to 1000 nM	–	O=C(O)C1CN([C@@H]2CCc3cc(-c4cccc(-c5cccc(-c6ccc7c(c6)CC[C@H]7N6CC(C(=O)O)C6)c5Cl)c4Cl)ccc32)C1 (single isomer, unassigned) [Compound M-3B]
≤ 10 nM	–	100 to 1000 nM	–	CCOC(=O)C1CN([C@@H]2CCc3cc(-c4cccc(-c5cccc(-c6ccc7c(c6)CC[C@H]7N6CC(C(=O)OCC)C6)c5Cl)c4Cl)ccc32)C1 (single isomer, unassigned) [Compound L-7]
≤ 10 nM	–	100 to 1000 nM	–	CCOC(=O)C1CN([C@H]2CCc3cc(-c4cccc(-c5cccc(-c6ccc7c(c6)CC[C@@H]7N6CC(C(=O)O)C6)c5Cl)c4Cl)ccc32)C1 (single isomer, unassigned) [Compound M-2A]
≤ 10 nM	–	1000 to 10000 nM	–	CCOC(=O)C1CN([C@H]2CCc3cc(-c4cccc(-c5cccc(-c6ccc7c(c6)CC[C@@H]7N6CC(C(=O)OCC)C6)c5Cl)c4Cl)ccc32)C1 (single isomer, unassigned) [Compound L-6]
≤ 10 nM	–	100 to 1000 nM	–	COc1cc(-c2cccc(-c3cccc(-c4cc5c(c(OC)c4)C(N4CC(C(=O)O)C4)CC5)c3Cl)c2Cl)cc2c1C(N1CC(C(=O)O)C1)CC2 (centres unmarked) [Compound M-1B]
≤ 10 nM	≤ 10 nM	≤ 10 nM	–	COc1nc(-c2cccc(-c3cccc(-c4cc5c(c(OC)n4)[C@@H](N4CC6(CCC(=O)N6)C4)CC5)c3Cl)c2F)cc2c1[C@@H](N1CC3(CCC(=O)N3)C1)CC2 (single isomer, unassigned) [Compound L-9]
≤ 10 nM	–	1000 to 10000 nM	–	COCCN1CCc2c(cc(-c3cccc(-c4cccc(-c5cc6c(c(OC)n5)CCN(CCOC)C6)c4Cl)c3Cl)nc2OC)C1 [Compound O-1]
≤ 10 nM	–	100 to 1000 nM	–	O=C(O)C1CN([C@H]2CCc3cc(-c4cccc(-c5cccc(-c6ccc7c(c6)CC[C@@H]7N6CC(C(=O)O)C6)c5Cl)c4Cl)ccc32)C1 (single isomer, unassigned) [Compound M-2B]
10 to 100 nM	–	–	n.r	COc1cc(-c2cccc(-c3cccc(-c4cc5c(c(OC)c4)[C@H](N4CC(C(=O)O)C4)CC5)c3Cl)c2Cl)cc2c1[C@H](N1CC(C(=O)O)C1)CC2 (single isomer, unassigned) [Compound M-4B]
≤ 10 nM	≤ 10 nM	≤ 10 nM	–	COc1nc(-c2cccc(-c3cccc(-c4cc5c(c(OC)n4)[C@@H](NC[C@@H]4CCC(=O)N4)CC5)c3Cl)c2F)cc2c1[C@@H](NC[C@@H]1CCC(=O)N1)CC2 [Compound L-8]
100 to 1000 nM	–	–	n.r	CCOC(=O)C1CN([C@@H]2CCc3cc(-c4cccc(-c5cccc(-c6cc7c(c(OC)c6)[C@H](N6CC(C(=O)OCC)C6)CC7)c5Cl)c4Cl)cc(OC)c32)C1 (single isomer, unassigned) [Compound L-5]
–	–	100 to 1000 nM	–	CCOC(=O)C1CN(C2CCc3cc(-c4cccc(-c5cccc(-c6cc7c(c(OC)n6)CCN(CCOC)C7)c5Cl)c4Cl)cc(OC)c32)C1 (single isomer, unassigned) [Compound O-2A]
≤ 10 nM	≤ 10 nM	> 10000 nM	–	COc1nc(-c2cccc(-c3cccc(-c4cc5c(c(OC)n4)[C@@H](N4CC6(CN(C(C)=O)C6)C4)CC5)c3Cl)c2F)cc2c1[C@@H](N1CC3(CN(C(C)=O)C3)C1)CC2 (single isomer, unassigned) [Compound L-10]
≤ 10 nM	–	100 to 1000 nM	–	CCOC(=O)C1CN([C@@H]2CCc3cc(-c4cccc(-c5cccc(-c6ccc7c(c6)CC[C@H]7N6CC(C(=O)O)C6)c5Cl)c4Cl)ccc32)C1 (single isomer, unassigned) [Compound M-3A]
